Experimental data published in article PMC11237012, “Synthesis and preliminary evaluation of novel PET probes for GSK-3 imaging” (Scientific Reports, 2024).
Values joined by “and” are separate entries in the source; they are usually repeats but may differ in a detail not shown here. Equal entries are not always repeated. Structures can show the parent of a compound that is named as a salt. Each block holds one molecule with its values, some of them ahead of it.

Columns and labels:
[1] = In vitro parallel artificial membrane permeability assay (PAMPA), blood–brain barrier permeability; details: for Papp: PAMPA
Description: To evaluate the blood–brain barrier permeability and binding affinity of the developed PET probes[^18F]2 and [^18F]6, their respective nonradioactive versions were used. For blood–brain barrier permeability evaluation, we applied in vitro parallel artificial membrane permeability assay (PAMPA) and evaluated binding affinity via an inhibition assay to determine the IC50 value, as described in method section. We further measured the stability of both PET probes, [^18F]2 and [^18F]6, using radio thin layer chromatography (radio-TLC) over time, as also described in the method section. […] The blood–brain permeability was expressed through the permeability coefficient, P (10^–6 cm/s) and -logPe.

[2] = design: method as in PMID 33492962, doi:10.1002/ejoc.202201031; details: cited from earlier work
[3] = design: method as in PMID 33492962, doi:10.1002/ejoc.202201031; details: FVB/NJ mice; cited from earlier work
[4] = target: T1, human GSK-3α (Homo sapiens, UniProt P49840); experiment: GSK-3α kinase inhibition assay (ADP-Glo); format: biochemical
T1 construct: purchased Promega Corporation, Madison, WI
T1 sequence (P49840 whole entry): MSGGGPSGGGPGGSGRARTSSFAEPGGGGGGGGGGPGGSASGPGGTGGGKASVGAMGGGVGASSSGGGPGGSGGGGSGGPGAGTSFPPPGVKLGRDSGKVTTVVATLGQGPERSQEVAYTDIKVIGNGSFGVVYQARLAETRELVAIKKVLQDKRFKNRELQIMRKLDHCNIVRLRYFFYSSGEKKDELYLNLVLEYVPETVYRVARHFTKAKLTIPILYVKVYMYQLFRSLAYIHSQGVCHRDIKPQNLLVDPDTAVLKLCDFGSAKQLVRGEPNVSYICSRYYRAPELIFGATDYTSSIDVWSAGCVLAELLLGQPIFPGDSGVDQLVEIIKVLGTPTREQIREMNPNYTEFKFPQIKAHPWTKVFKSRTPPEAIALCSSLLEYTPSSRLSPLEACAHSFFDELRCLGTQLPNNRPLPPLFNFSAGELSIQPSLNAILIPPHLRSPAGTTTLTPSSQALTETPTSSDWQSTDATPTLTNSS
Description: (§1) Phosphorylation of glycogen synthase kinase substrate was quantified using a luminescent ADP-Glo™ Kinase assay system (Promega Corporation, Madison, WI).

[5] = target: T2, human GSK-3β (Homo sapiens, UniProt P49841); experiment: GSK-3β kinase inhibition assay (ADP-Glo); format: biochemical
T2 construct: purchased Promega Corporation, Madison, WI
T2 sequence (P49841 whole entry): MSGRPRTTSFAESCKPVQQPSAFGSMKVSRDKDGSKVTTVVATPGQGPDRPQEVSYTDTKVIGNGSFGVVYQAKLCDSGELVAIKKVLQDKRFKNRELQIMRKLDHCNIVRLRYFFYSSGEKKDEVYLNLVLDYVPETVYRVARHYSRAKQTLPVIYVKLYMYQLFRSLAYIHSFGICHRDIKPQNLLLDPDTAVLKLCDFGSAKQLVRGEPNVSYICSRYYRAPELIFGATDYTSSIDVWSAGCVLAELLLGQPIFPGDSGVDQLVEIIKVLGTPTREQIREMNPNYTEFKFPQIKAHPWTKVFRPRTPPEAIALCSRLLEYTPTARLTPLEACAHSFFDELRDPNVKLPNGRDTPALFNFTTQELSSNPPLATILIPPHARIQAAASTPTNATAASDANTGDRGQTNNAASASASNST
Description: as §1

[6] = Radiochemical stability in isotonic NaCl solution (rad-TLC); format: physicochemical; details: 37 °C
Procedure: (§2) The stability of PET probes [^18F]2 and [^18F]6 was measured in isotonic NaCl solution (0.9% NaCl) and mouse and human serums at 37 °C for up to 120 min by rad-TLC at 0 min, 30 min, 60 min and 120 min post incubation. The results obtained are presented in Fig. 5 and SI-Figs. S10–S15, SI-Table S1. […] The plausible explanation of the instability of [^18F]6 could be attributed to the covalent interaction of [^18F]6’s SO2F group with primary amines of amino acid residues present in the protein rich mouse and human serums. In fact, in an unrelated study, Zhao et al. reported formation of sulfonamide bond between sulfuryl fluoride and primary amine of conserved lysine residues of different kinases. […] Based on 2’s favorable blood–brain barrier permeability, nanomolar binding affinity and PET probe [^18F]2’s excellent stability in both mouse and human serums, further in vivo evaluations were performed only with PET probe [^18F]2.
(§3) Stability of [^18F]2 and [^18F]6 was assessed in isotonic NaCl solution and human and mouse serums. To perform this stability assay, 100 µL of [^18F]2 (~ 37.0 MBq) or 100 µL of [^18F]6 (~ 37.0 MBq) as in final formulation was added to 100 µL of human serum or mouse serum in a microcentrifuge tube. The resultant mixture was incubated at 37 °C for 120 min. To assess the radiochemical stability of the probes, a small aliquot (~ 0.5 µL) was taken out from the mixture in triplicate at 0 min, 30 min, 60 min and 120 min during incubation, and analyzed on a rad-TLC using 0.5:9.5 methanol: chloroform as a mobile phase using i-TLC to estimate the stability of [^18F]2 or [^18F]6 at different time points post-incubation. After Stability preparative processes initial i-TLC development was considered as 0 min.

[7] = Radiochemical stability in mouse serum (rad-TLC); format: in vitro ADME; details: 37 °C
Procedure: as §2, §3

[8] = Radiochemical stability in human serum (rad-TLC); format: in vitro ADME; details: 37 °C
Procedure: as §2, §3

[9] = target: GSK-3β; design: method as in PMID 33840834, PMID 35295885, PMID 34423266; details: cited from earlier work
[10] = design: method as in PMID 33840834, PMID 35295885, PMID 34423266; details: 2 min post injection; Sprague Dawley rats; cited from earlier work
[11] = pH 7.4, Permeability coefficient, P, Average ± SD

Papp [1, 11]: 32 ± 1 ×10⁻⁶ cm/s
SMILES: CC(C)NCC(O)COc1cccc2ccccc12 (centres unmarked) [Propranolol HCl, reference compound]

SMILES: O=C(Nc1cnccc1-c1ccc([18F])nc1)c1ccnc(NC(=O)C2CC2)c1 [[^18F]CNBI]
metabolic stability [2]: moderate
brain uptake [3]: poor

SMILES: O=C(Nc1cnccc1-c1ccc(OS(=O)(=O)F)cc1)c1ccnc(NC(=O)C2CC2)c1 [Compound 6, 4-(3-(2-(cyclopropanecarboxamido)isonicotinamido)pyridin-4-yl)phenyl sulfurofluoridate]
IC50 [4]: 55.7 ± 4.89 nM
IC50 [5]: 44 ± 2.84 nM
Papp ([1]; pH 7.4): 8.75 ± 3.9 ×10⁻⁶ cm/s

SMILES: O=C(Nc1cnccc1-c1ccc(OS(=O)(=O)[18F])cc1)c1ccnc(NC(=O)C2CC2)c1 [[^18F]6]
Percentage of intact probe ([6]; 0 min): 100 ± 0.0%
Percentage of intact probe ([6]; 30 min): 100 ± 0.0%
Percentage of intact probe ([6]; 60 min): 100 ± 0.0%
Percentage of intact probe ([7]; 30 min): 87.30 ± 8.99%
Percentage of intact probe ([7]; 60 min): 81.17± 6.38%
Percentage of intact probe ([7]; 120 min): 67.01 ± 4.93% and 67.01 ± 6.38%
Percentage of intact probe ([8]; 30 min): 92.46± 2.61% and 92.46 ± 2.6%
Percentage of intact probe ([8]; 60 min): 80.13± 14.24%
Percentage of intact probe ([8]; 120 min): 66.20 ± 6.38% and 66.20 ± 4.93%

SMILES: COc1ccc(-c2ocnc2C(=O)NCCCc2ccc([18F])nc2)cc1Cl [[^18F]OCM50]
Ki [9]: 0.28 nM
standardized uptake value (SUV) [10]: ~ 2.0

Papp ([1]; pH 7.4, Average ± SD): 31.6 ×10⁻⁶ cm/s
Papp [1, 11]: 36 ± 20 ×10⁻⁶ cm/s
Permeability coefficient, P, Average ± SD ([1]; pH 7.4): 38 ± 20 (n = 3) 10^–6 cm/s
SMILES: O=C(Nc1cnccc1-c1ccc(F)cc1)c1ccnc(NC(=O)C2CC2)c1 [Compound 2, 2-(cyclopropanecarboxamido)-N-(4-(4-fluorophenyl)pyridin-3-yl)isonicotinamide]
